This assay concerns E. coli, P. aeruginosa, A. calcoaceticus and S. aureus. Briefly: MIC and MBC summarised across the test species. Type of assay: cell-based. The note with it: species not given.

We go through two compounds from publication PMC8159387 (Chemical Science, 2020).

SMILES strings stand for the structures. Square brackets hold non-standard residues; d marks the D form. Peptide text beside a SMILES is read from it. * marks the point of attachment. CH2CH2OBz(4-tBu) = CC(C)(C)c1ccc(C(=O)OCC*)cc1; dDab = NCC[C@@H](N)C(=O)O; Dab = NCC[C@H](N)C(=O)O; Mpa = O=C(O)CCS

On to `CC(C)C[C@H](NC(=O)[C@H](CCN)NC(=O)[C@H](CCN)NC(=O)[C@@H](Cc1ccccc1)NC(=O)[C@H](CC(C)C)NC(=O)[C@H](CCN)NC(=O)[C@H](CCN)NC(=O)[C@@H](CCN)NC(=O)[C@@H](N)CSCCOC(=O)c1ccc(C(C)(C)C)cc1)C(N)=O` [Peptide 12f] (H-C(CH2CH2OBz(4-tBu))[dDab][Dab][Dab]L[dF][Dab][Dab]L-NH2), for which the “lowest MIC values of the CLipPA analogues” value was 8 μM. In the case of `CC(C)C[C@H](NC(=O)[C@H](CCN)NC(=O)[C@H](CCN)NC(=O)[C@@H](Cc1ccccc1)NC(=O)[C@H](CC(C)C)NC(=O)[C@H](CCN)NC(=O)[C@H](CCN)NC(=O)[C@@H](CCN)NC(=O)CCSCCOC(=O)c1ccc(C(C)(C)C)cc1)C(N)=O` [Peptide 13f] ([Mpa](CH2CH2OBz(4-tBu))[dDab][Dab][Dab]L[dF][Dab][Dab]L-NH2), the “lowest MIC values of the CLipPA analogues” value is listed as 8 μM.
